The source made the active and inactive calls.
How the values were obtained:
[1] = NIH-3T3 fibroblast cytotoxicity, dose response, cytotoxicity control, cell-based, fluorescence, Alamar Blue, secondary assay (AID 2327); format: functional;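 note: NIH-3T3 mouse fibroblasts cultured with fluconazole at 8 µg/mL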
[2] = fluconazole-exposed Candida albicans growth modulators – fluorescence, retest, confirmation (AID 2467); format: functional, cell-based
[3] = biological target: T1, Serine/threonine-protein phosphatase (Candida dubliniensis (strain CD36 / CBS 7987 / NCPF 3949 / NRRLY-17841) (Yeast), UniProt B9W6M3); assay: blockers of CaCl2-induced CDRE-lacZ signaling – S. cerevisiae, luminescence, secondary, dose response (AID 2388); format: functional, cell-based;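 note: yeast reporter cells carrying a calcineurin-responsive lacZ construct stimulated with calcium chloride; luminescent beta-galactosidase reporter signal in whole cells rather than isolated phosphatase activity; potency for inhibition where a drop in reporter signal means calcineurin blockade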
T1 sequence (B9W6M3 whole entry): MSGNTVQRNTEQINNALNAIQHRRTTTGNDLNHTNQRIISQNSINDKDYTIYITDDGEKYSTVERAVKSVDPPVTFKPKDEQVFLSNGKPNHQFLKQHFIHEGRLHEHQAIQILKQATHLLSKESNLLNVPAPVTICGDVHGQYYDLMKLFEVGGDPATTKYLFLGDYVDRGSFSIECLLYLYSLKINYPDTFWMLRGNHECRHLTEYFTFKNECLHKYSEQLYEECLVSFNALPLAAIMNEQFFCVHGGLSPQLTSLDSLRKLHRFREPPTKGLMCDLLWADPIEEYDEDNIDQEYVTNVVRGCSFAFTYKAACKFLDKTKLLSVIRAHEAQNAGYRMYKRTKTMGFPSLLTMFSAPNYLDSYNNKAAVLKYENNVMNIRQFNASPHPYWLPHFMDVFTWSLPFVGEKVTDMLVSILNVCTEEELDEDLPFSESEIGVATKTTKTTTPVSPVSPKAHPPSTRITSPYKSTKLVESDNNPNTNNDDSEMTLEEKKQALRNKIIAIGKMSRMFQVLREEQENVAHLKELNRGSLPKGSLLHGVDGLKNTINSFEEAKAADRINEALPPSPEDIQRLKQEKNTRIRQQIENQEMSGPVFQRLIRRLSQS

[4] = biological target: ATP-dependent molecular chaperone HSP82 (Candida albicans (strain WO-1) (Yeast), UniProt C4YTQ8); assay: steroid-induced GRE reporter decrease in yeast – S. cerevisiae, luminescence, Hsp90 inhibitor project, dose response (AID 2400); format: functional, cell-based;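 note: beta-galactosidase luminescence from glucocorticoid response element reporter as proxy for Hsp90 function; inhibitor potency where signal loss means Hsp90 inhibition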
Sequence of ATP-dependent molecular chaperone HSP82 (C4YTQ8 whole entry): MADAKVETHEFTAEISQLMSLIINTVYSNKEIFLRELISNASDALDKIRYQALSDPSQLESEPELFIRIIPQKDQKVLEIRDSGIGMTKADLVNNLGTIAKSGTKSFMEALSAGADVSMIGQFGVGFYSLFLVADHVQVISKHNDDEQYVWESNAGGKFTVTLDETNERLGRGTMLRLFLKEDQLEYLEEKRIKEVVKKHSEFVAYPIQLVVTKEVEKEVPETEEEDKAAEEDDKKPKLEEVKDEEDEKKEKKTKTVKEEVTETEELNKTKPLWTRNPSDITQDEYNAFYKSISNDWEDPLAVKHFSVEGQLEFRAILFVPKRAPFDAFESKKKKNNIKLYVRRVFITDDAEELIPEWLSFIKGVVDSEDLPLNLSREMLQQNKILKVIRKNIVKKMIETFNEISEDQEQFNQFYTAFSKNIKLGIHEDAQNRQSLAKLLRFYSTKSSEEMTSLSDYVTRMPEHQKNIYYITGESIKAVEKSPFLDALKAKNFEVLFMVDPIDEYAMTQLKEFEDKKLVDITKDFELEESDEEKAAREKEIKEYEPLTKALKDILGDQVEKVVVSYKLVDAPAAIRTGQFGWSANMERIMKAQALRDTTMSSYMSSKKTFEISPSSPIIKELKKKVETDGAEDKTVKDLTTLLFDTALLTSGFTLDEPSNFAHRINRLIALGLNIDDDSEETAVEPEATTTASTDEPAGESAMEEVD

[5] = viability of uninfected HEp-2 cells – cell-based, HTS, cytotoxicity control for RSV inhibitor project, dose response (AID 2410); format: functional; conditions: human respiratory syncytial virus
[6] = tested on: Vero; assay: cells; format: functional, cell-based; conditions: Chlorocebus sabaeus
[7] = cells
[8] = luciferase reporter signal suppression in cells – H4 neuroglioma cells, luminescence, dose response (AID 1990); format: functional, cell-based
[9] = Luminescence Cell-Based Dose Response HTS to Identify Inhibitors of 5'UTR Stem-Loop Driven Prion Protein mRNA Translation in H4 Neuroglioblastoma Cells. [Related pubchem assays: 1827 (Project Summary), 1813 (Primary HTS)]; format: functional
[10] = alpha-synuclein stem-loop luciferase translation blockers – H4 neuroglioma cells, luminescence, confirmation (AID 1988); format: functional, cell-based
[11] = biological target: T2, Ubiquitin-conjugating enzyme E2 N (Homo sapiens, UniProt P61088); format: functional;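 note: Dose-response confirmation in a TR-FRET assay detecting UBC13-driven polyubiquitin chain formation, inhibition measured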
T2 sequence (P61088 whole entry): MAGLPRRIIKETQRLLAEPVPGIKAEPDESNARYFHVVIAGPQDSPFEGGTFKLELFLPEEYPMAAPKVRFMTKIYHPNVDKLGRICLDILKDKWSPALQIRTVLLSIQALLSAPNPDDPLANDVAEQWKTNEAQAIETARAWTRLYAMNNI

[12] = tested on: Vero; assay: cells; format: functional; conditions: Chlorocebus sabaeus
[13] = HEK-293T viability loss after treatment – luminescence, T-cell screen hits, cytotoxicity control for TCR NF-kB inhibitor project, dose response (AID 489026); format: functional, cell-based;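 note: cells exposed to compound about 14 hours before the viability readout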
[14] = tested on: H4; assay: Inhibitors of Prion Protein 5' UTR mRNA Measured in Cell-Based System Using Plate Reader - 2078-01_Inhibitor_Dose_DryPowder_Activity. [Related pubchem assays (depositor defined):AID488894]; format: functional; conditions: Homo sapiens

Structure (SMILES) | EC50 [1] | EC50 [2] | EC50 [3] | EC50 [4] | IC50 [6] | other results
O=C(Nc1nnc(SCc2ccc(Cl)cc2)s1)c1cnccn1 | > 160 µM (inactive) | 0.57 µM (active) | > 180 µM (inactive) | 24.4 µM (active) |  | 
O=C(Cc1c[nH]c2ccccc12)Nc1nnc(C2CC2)s1 |  |  |  |  | 16.6 µM (active) | CC50 [5]: 21.6 µM (active); IC50 [7]: 39.1 µM (active)
CCCOc1ccc(C(=O)NNC(=S)NC(C)=O)cc1 | > 160 µM (inactive) | 0.372 µM (active) | > 180 µM (inactive) | > 160 µM (inactive) | 23.6 µM (active) | EC50 [8]: 14.2 µM (active); EC50 [9]: 14.2 µM (active); EC50 [10]: 9.77 µM (active); IC50 [11]: > 20 µM (inactive); CC50 [12]: > 25 µM (active)
C=CCn1c(SCc2c(C)noc2C)nc2ccccc2c1=O |  |  |  |  |  | IC50 [13]: > 80 µM (inactive); AC50 [14]: 0.574 µM (active)
O=c1oc(C2(O)CCCCC2)cc2ccc(-c3ccc4[nH]ccc4c3)cc12 |  |  |  |  | 1.11 µM (active) | 

Reference: ChEMBL document CHEMBL1201862, “PubChem BioAssay data set” (2004)
